From patent publication US9302991B2, “Arylamide derivatives as TTX-S blockers” (RaQualia Pharma Inc., priority 2010, dated 2016)

Target: T1, human Nav1.7 channels (Homo sapiens, UniProt Q15858)
T1 construct: expressed in transfected cells; host or cells: CHO
Experiment: FRET assay, human Nav1.7 (EFS on FDSS)
Type: cell-based
Conditions: CHO cells expressing human Nav1.7, read-out: IC50 against Nav1.7
In short: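 IC50 was derived from normalized 440 nm fluorescence ratios of the EFS-evoked membrane-potential response read on FDSS. Recombinant CHO cells were sequentially dye-loaded with coumarin/oxonol FRET pair at room temperature in pH 7.4 buffer before compound addition.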

T1 sequence (Q15858 whole entry): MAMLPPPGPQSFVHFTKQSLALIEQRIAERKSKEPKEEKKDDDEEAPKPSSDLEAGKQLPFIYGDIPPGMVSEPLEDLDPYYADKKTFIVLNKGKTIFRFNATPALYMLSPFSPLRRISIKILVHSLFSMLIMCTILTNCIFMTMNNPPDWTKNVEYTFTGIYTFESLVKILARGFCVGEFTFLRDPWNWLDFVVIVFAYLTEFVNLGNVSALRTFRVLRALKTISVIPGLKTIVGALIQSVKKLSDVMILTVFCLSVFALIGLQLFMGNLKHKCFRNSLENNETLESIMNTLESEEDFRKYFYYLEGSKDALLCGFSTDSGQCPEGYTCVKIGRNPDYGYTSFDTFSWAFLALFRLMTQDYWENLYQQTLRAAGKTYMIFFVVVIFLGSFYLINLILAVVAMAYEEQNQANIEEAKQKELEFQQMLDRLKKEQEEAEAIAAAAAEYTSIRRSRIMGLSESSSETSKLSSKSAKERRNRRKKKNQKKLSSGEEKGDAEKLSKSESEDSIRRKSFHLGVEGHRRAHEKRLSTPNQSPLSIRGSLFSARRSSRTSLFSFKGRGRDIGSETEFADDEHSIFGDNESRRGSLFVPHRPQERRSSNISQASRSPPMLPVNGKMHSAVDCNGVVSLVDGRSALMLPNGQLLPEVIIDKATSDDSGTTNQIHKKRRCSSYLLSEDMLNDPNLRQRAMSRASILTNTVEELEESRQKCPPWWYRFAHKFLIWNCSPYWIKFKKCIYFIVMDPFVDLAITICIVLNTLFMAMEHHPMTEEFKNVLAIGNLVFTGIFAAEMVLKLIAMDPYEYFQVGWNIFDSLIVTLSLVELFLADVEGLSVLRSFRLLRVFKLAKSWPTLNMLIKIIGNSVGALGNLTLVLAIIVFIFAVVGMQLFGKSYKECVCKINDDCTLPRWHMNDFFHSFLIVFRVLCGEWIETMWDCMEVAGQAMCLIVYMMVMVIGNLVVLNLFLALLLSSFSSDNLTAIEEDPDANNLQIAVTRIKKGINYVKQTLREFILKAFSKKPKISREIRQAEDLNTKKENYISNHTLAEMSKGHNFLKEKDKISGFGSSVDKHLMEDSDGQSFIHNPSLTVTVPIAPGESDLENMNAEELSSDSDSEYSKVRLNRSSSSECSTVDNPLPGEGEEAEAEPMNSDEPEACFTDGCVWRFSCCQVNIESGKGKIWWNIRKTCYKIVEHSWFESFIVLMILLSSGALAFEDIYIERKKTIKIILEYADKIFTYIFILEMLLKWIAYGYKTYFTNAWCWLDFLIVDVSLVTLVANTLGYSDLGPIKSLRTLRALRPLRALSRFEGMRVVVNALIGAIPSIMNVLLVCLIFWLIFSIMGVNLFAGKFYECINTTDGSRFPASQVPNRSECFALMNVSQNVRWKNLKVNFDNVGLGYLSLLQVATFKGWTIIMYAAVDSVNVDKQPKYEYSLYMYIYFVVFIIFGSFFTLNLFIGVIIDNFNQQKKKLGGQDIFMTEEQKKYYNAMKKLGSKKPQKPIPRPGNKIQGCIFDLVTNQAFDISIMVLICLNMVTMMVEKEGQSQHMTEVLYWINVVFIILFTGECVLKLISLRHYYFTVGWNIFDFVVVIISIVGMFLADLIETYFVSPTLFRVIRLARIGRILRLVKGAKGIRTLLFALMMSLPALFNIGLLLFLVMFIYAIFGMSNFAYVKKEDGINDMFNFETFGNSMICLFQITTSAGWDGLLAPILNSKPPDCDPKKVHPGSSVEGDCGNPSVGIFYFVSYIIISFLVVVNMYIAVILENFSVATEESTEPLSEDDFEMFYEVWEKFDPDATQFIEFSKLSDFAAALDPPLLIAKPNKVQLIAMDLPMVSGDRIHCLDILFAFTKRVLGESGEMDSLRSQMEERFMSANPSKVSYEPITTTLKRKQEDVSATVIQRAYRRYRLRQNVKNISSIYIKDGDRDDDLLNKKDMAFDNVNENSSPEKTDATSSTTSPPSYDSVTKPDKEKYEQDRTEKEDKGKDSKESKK

IC50 [nM] | Compound
< 1000 | CC(=O)Nc1cc(C(=O)NCc2ccc(O[C@H](C)C(F)(F)F)nc2)cc(C)n1 (single isomer, unassigned) [Example 320]
< 1000 | CC(NC(=O)c1ccnc(NC(=O)C2CC2)c1)c1ccc(OCC(F)(F)F)nc1 (single isomer, unassigned) [Example 9, 2-(cyclopropanecarboxamido)-N-(1-(6-(2,2,2-trifluoroethoxy)pyridin-3-yl)ethyl)isonicotinamide]
< 1000 | Cc1cc(C(=O)NCc2cccc(C(F)(F)F)c2Cl)cc(NC(=O)C(C)C)n1 [Example 878, N-(2-chloro-3-(trifluoromethyl)benzyl)-2-isobutyramido-6-methylisonicotinamide]
< 1000 | CCC(=O)Nc1cc(C(=O)NC(C)c2ccc(OCC(F)(F)C(F)(F)F)nc2)ccn1 (single isomer, unassigned) [Example 1169, N-(1-(6-(2,2,3,3,3-pentafluoropropoxy)pyridin-3-yl)ethyl)-2-propionamidoisonicotinamide]
< 1000 | Cc1cc(C(C)NC(=O)c2ccnc(NC(=O)C(C)C)c2)cc(Cl)c1OCC(F)F (single isomer, unassigned) [Example 1210, N-(1-(3-chloro-4-(2,2-difluoroethoxy)-5-methylphenyl)ethyl)-2-isobutyramidoisonicotinamide]
< 1000 | CC(=O)Nc1cc(C(=O)NCc2ccc(OCC(F)(F)F)nc2N2CCOCC2)cc(C)n1 [Example 283, 2-acetamido-6-methyl-N-((2-morpholino-6-(2,2,2-trifluoroethoxy)pyridin-3-yl)methyl)isonicotinamide]
< 1000 | CC(=O)Nc1cc(C(=O)NCc2ccc(OCC(F)(F)F)nc2N2CCCCC2)cc(C)n1 [Example 307, 2-acetamido-6-methyl-N-((2-(piperidin-1-yl)-6-(2,2,2-trifluoroethoxy)pyridin-3-yl)methyl)isonicotinamide]
< 1000 | CCOc1nc(OCC(F)(F)F)ccc1CNC(=O)c1cc(C)nc(NC(C)=O)n1 [Example 338, 2-acetamido-N-((2-ethoxy-6-(2,2,2-trifluoroethoxy)pyridin-3-yl)methyl)-6-methylpyrimidine-4-carboxamide]
< 1000 | CCOc1nc(OCC(F)(F)F)ccc1CNC(=O)c1cc(C)nc(NC(C)=O)c1 [Example 336, 2-acetamido-N-((2-ethoxy-6-(2,2,2-trifluoroethoxy)pyridin-3-yl)methyl)-6-methylisonicotinamide]
< 1000 | CCC(=O)Nc1cc(C(=O)NC(C)c2ccc(OCCC(F)(F)F)nc2)cc(C)n1 (single isomer, unassigned) [Example 140, 2-methyl-6-propionamido-N-(1-(6-(3,3,3-trifluoropropoxy)pyridin-3-yl)ethyl)isonicotinamide]
< 1000 | Cc1cc(C(=O)NC(C)c2ccc(OCC(F)(F)C(F)(F)F)nc2)cc(NC(=O)C2CC2)n1 (single isomer, unassigned) [Example 837, 2-(cyclopropanecarboxamido)-6-methyl-N-(1-(6-(2,2,3,3,3-pentafluoropropoxy)pyridin-3-yl)ethyl)isonicotinamide]
< 1000 | CCC(=O)Nc1cc(C(=O)NC(C)c2cnc(OCC(F)F)c(C)c2)ccn1 (single isomer, unassigned) [Example 552, N-(1-(6-(2,2-difluoroethoxy)-5-methylpyridin-3-yl)ethyl)-2-propionamidoisonicotinamide]
< 1000 | Cc1cc(C(=O)NC(C)c2cnc(OCC(F)F)c(C)c2)nc(NC(=O)C2CC2)n1 (single isomer, unassigned) [Example 559, 2-(cyclopropanecarboxamido)-N-(1-(6-(2,2-difluoroethoxy)-5-methylpyridin-3-yl)ethyl)6-methylpyrimidine-4-carboxamide]
< 1000 | CCc1cc(C(C)NC(=O)c2cc(C)nc(NC(=O)C(C)C)c2)cnc1OCC(F)F (single isomer, unassigned) [Example 893, N-(1-(6-(2,2-difluoroethoxy)-5-ethylpyridin-3-yl)ethyl)-2-isobutyramido-6-methylisonicotinamide]
< 1000 | Cc1cc(C(=O)NC(C)c2ccc(OCC(F)(F)F)cc2Cl)nc(NC(=O)C2CC2)n1 (single isomer, unassigned) [Example 803, N-(1-(2-chloro-4-(2,2,2-trifluoroethoxy)phenyl)ethyl)-2-(cyclopropanecarboxamido)-6-methylpyrimidine-4-carboxamide]
< 1000 | Cc1cc(C(=O)NCc2cccc(C(F)(F)F)c2C)cc(NC(=O)C(C)C)n1 [Example 879, 2-isobutyramido-6-methyl-N-(2-methyl-3-(trifluoromethyl)benzyl)isonicotinamide]
< 1000 | CCC(=O)Nc1cc(C(=O)N(C)Cc2ccc(OCC(F)(F)F)nc2OC)cc(C)n1 [Example 291, N-((2-methoxy-6-(2,2,2-trifluoroethoxy)pyridin-3-yl)methyl)-N,2-dimethyl-6-propionamidoisonicotinamide]
< 1000 | CCC(=O)Nc1cc(C(=O)NC(C)c2cnc(OCC(F)(F)F)c(OC)c2)cc(C)n1 (single isomer, unassigned) [Example 144, N-(1-(5-methoxy-6-(2,2,2-trifluoroethoxy)pyridin-3-yl)ethyl)-2-methyl-6-propionamidoisonicotinamide]

IC50 [nM] | Compound
< 1000 | COc1cc(CNC(=O)c2cc(C)nc(NC(C)=O)c2)cnc1OCC(F)(F)F [Example 272, 2-acetamido-N-((5-methoxy-6-(2,2,2-trifluoroethoxy)pyridin-3-yl)methyl)-6-methylisonicotinamide]
< 1000 | Cc1cc(C(=O)NCc2cnc(OCC(F)(F)F)c(C)c2)nc(NC(=O)C(C)C)n1 [Example 366, 2-isobutyramido-6-methyl-N-((5-methyl-6-(2,2,2-trifluoroethoxy)pyridin-3-yl)methyl)pyrimidine-4-carboxamide]
< 1000 | CC(=O)Nc1nccc(C(=O)NC(C)c2cnc(OCC(F)(F)F)c(C)c2)n1 (single isomer, unassigned) [Example 234, 2-acetamido-N-(1-(5-methyl-6-(2,2,2-trifluoroethoxy)pyridin-3-yl)ethyl)pyrimidine-4-carboxamide]
< 1000 | CCC(=O)Nc1cc(C(=O)NCc2ccc(O[C@H](C)C(F)(F)F)nc2)cc(C)n1 (single isomer, unassigned) [Example 318]
< 1000 | CCC(=O)Nc1cc(C(=O)NC(C)c2cnc(OCC(F)(F)F)c(OC)c2)ccn1 (single isomer, unassigned) [Example 142]
< 1000 | CC(=O)Nc1cc(C(=O)N(C)Cc2cnc(OCC(F)(F)F)c(C)c2)cc(C)n1 [Example 394, 2-acetamido-N,6-dimethyl-N-((5-methyl-6-(2,2,2-trifluoroethoxy)pyridin-3-yl)methyl)isonicotinamide]
< 1000 | Cc1cc(C(=O)NCc2cnc(OCC(F)(F)F)c(Cl)c2)nc(NC(=O)C2CC2)n1 [Example 1147, N-((5-chloro-6(2,2,2-trifluoroethoxy)pyridin-3-yl)methyl)-2-(cyclopropanecarboxamido)-6-methylpyrimidine-4-carboxamide]
< 1000 | CC(C)C(=O)Nc1cc(C(=O)NC(C)c2ccc(OCC(C)(F)F)nc2)ccn1 (single isomer, unassigned) [Example 785, N-(1-(6-(2,2-difluoropropoxy)pyridin-3-yl)ethyl)-2-isobutyramidoisonicotinamide]
< 1000 | CCC(=O)Nc1cc(C(=O)NC(CC)c2ccc(OCC(F)(F)F)nc2)cc(C)n1 (single isomer, unassigned) [Example 133, 2-methyl-6-propionamido-N-(1-(6-(2,2,2-trifluoroethoxy)pyridin-3-yl)propyl)isonicotinamide]
< 1000 | CCC(=O)Nc1cc(C(=O)NC(C)c2ccc(OCC(F)F)nc2OC)ccn1 (single isomer, unassigned) [Example 1161, N-(1-(6-(2,2-difluoroethoxy)-2-methoxypyridin-3-yl)ethyl)-2-propionamidoisonicotinamide]
< 1000 | O=C(NCc1ccc(OCC(F)(F)C(F)F)nc1)c1ccnc(NC(=O)C2CC2)c1 [Example 635, 2-(cyclopropanecarboxamido)-N-((6-(2,2,3,3-tetrafluoropropoxy)pyridin-3-yl)methyl)isonicotinamide]
< 1000 | CC(=O)Nc1cc(C(=O)NCc2cccc(OC(F)(F)F)c2)ccn1 [Example 24, 2-acetamido-N-(3-(trifluoromethoxy)benzyl)isonicotinamide]
< 1000 | CCCC(=O)Nc1cc(C(=O)NCc2ccc(OCC(F)(F)F)nc2OCC)ccn1 [Example 337, 2-butyramido-N-((2-ethoxy-6-(2,2,2-trifluoroethoxy)pyridin-3-yl)methyl)isonicotinamide]
< 1000 | CC(=O)Nc1cc(C(=O)NC(C)c2ccc(OCC(C)(F)F)nc2)cc(C)n1 (single isomer, unassigned) [Example 783, 2-acetamido-N-(1-(6-(2,2-difluoropropoxy)pyridin-3-yl)ethyl)-6-methylisonicotinamide]
< 1000 | CCCC(=O)Nc1cc(C(=O)NC(C)c2cnc(OCC(F)(F)C(F)F)c(C)c2)ccn1 (single isomer, unassigned) [Example 928, 2-butyramido-N-(1-(5-methyl-6-(2,2,3,3-tetrafluoropropoxy)pyridin-3-yl)ethyl)isonicotinamide]
< 1000 | CCC(=O)Nc1cc(C(=O)NC(C)c2ccc(OCC(F)(F)C(F)F)nc2)ccn1 (single isomer, unassigned) [Example 653, 2-propionamido-N-(1-(6-(2,2,3,3-tetrafluoropropoxy)pyridin-3-yl)ethyl)isonicotinamide]
< 1000 | CCC(=O)Nc1cc(C(=O)NCc2cnc(OCC(F)(F)F)c(OC)c2)cc(C)n1 [Example 270]
< 1000 | COc1nc(OCC(F)F)ccc1C(C)NC(=O)c1ccnc(NC(C)=O)c1 (single isomer, unassigned) [Example 1160, 2-acetamido-N-(1-(6-(2,2-difluoroethoxy)-2-methoxypyridin-3-yl)ethyl)isonicotinamide]
